# Measured values from PMC12355554, “Development of novel mitochondrial pyruvate carrier inhibitors for breast cancer treatment” (The Journal of Biological Chemistry, 2025).
# Assays:
# [1] = molecular target: T1, mitochondrial pyruvate carrier (MPC) (Mus musculus, UniProt P63030+Q9D023); test: Methyl pyruvate reversal of inhibited Pyr-driven respiration; format: cell-based, murine; conditions: permeabilized 4T1 cells; 20 mM methyl Pyr
# T1 construct: host or cells: 4T1 murine breast cancer cells, rPFO-permeabilized
# T1 sequence (P63030 1-109): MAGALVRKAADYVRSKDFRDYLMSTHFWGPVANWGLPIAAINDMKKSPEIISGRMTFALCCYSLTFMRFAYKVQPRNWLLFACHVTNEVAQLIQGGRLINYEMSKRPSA
# T1 sequence (Q9D023 1-127): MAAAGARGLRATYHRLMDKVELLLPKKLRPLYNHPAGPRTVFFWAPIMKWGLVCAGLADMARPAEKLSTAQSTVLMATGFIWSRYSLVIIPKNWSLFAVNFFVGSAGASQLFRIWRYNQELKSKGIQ
# From the text: Although our initial experiments and previous literature illustrate the ability of the candidate compounds to inhibit Pyr-driven respiration, we sought to investigate the ability of candidate compounds to inhibit respiration fueled by other metabolic substrates, glutamate and succinate (Fig. 2). Glutamate, similar to Pyr oxidation, results in NADH equivalents that fuel complex I-mediated respiration, and succinate metabolism offers FADH2 for electrons in complex II-driven respiratory processes. […] To further validate the mode of action of the candidate compounds, a series of similar Seahorse experiments were employed (Fig. 2, A–C). In these experiments, 4T1 cells were first permeabilized and were then offered metabolic substrates Pyr (Pyr/Mal; Fig. 2A), glutamate (Glu/Mal, Fig. 2B), or succinate (Fig. 2C), and the resulting OCR was observed. As described previously, Mal and DCA were included in the substrate milieu of glutamate respiration experiments. […] To validate that inhibition of Pyr respiration is due to mitochondrial Pyr uptake and not other Pyr-processing enzymes (i.e., Pyr dehydrogenase), a parallel experiment using methyl pyruvate (MePyr) was employed (Fig. 2, E and F). MePyr is permeable to the mitochondrial membranes, where in the matrix, mitochondrial esterase hydrolysis activity provides Pyr.
# Permeabilized cell assays were performed using rPFO as described previously. […]
# 4T1 cells [2] = test: Seahorse mitochondrial stress test in intact 4T1 cells; format: cell-based, murine
# MDA-MB-231 = test: MTT cell proliferation inhibition assay, MDA-MB-231; format: cell-based; conditions: Homo sapiens, 72 h, 3 days
# Experimental: (§1) Confluent cell cultures were treated with trypsin and resuspended at 5 × 10^4 cells/ml. To a 96-well plate, 100 μl of the 5 × 10^4 cells/ml solution were added and allowed to incubate at 37 °C, 5% CO2 for 24 h. Compounds were then added and allowed to incubate for 3 days. […] Following the 4-h incubation with 3-(4,5-dimethylthiazol-2-yl)-2,5-diphenyltetrazolium bromide, 100 μl of SDS (0.1 g/ml, 0.01 N HCl) was added, and 96-well plates were allowed to incubate for an additional 4 h. […] Treatment absorbances are taken as percentages of the average untreated absorbances and plotted against log(concentration) in GraphPad Prism 10 (GraphPad Software, Inc) to generate effective concentration values where 50% of the cells are not proliferating (EC50).
# 67NR = test: MTT cell proliferation inhibition assay, 67NR; format: cell-based, murine; conditions: Mus musculus, 72 h, 3 days, average ± SEM
# Experimental: as §1
# 4T1 = test: Sulforhodamine B cell proliferation inhibition assay, 4T1; format: cell-based, murine; conditions: Mus musculus, 72 h, average ± SEM
# Experimental: Cells were seeded (3 × 10^4 cells/well) in 48-well plates and incubated overnight (37 °C, 5% CO2). Test compounds were then exposed to cells in duplicate in serial dilution fashion and were incubated for an additional 72 h (37 °C, 5% CO2). Media were then aspirated, and cells were washed three times with cold PBS and left overnight to dry fix. […] Dyed cells were then lysed with Tris (10 mM, pH 10), and absorbance readings were recorded at 540 nm of each well. Treatment absorbances are taken as percentages of the average untreated absorbances and plotted against log(concentration) in GraphPad Prism 10 to generate effective concentration values where 50% of the cells are not proliferating (EC50).
# [3] = Intrinsic CL in human liver microsomes; format: in vitro ADME
# 4T1 cells [4] = test: L-lactate accumulation assay, 4T1; conditions: MCT1-expressing 4T1 cells; 24 h
# Experimental: To test this, we assayed intracellular lactate accumulation following C5 treatment in MCT1-expressing 4T1 cells and MCT4-expressing MDA-MB-231 cells using commercially available lactate kits.
# On the third day, media were aspirated, and wells were rinsed twice with cold PBS. […] At this time, 1 ml of PBS was added to each well and underwent freeze–thaw lysis at −80 °C. Media in each well were aliquoted and centrifuged (16,000g, 10 min, 4 °C). The lysate supernatant was then aliquoted, and pellet was discarded. L-lactate concentration was then determined using Eton Biosciences L-Lactate assay kit 1 by mixing lysate sample with L-lactate assay solution in duplicate, incubating for 30 min (37 °C, 0% CO2) and measuring absorbance of enzyme produced INT formazan at 490 nm using a BioTek Synergy 2 plate reader. Absorbance values were compared with an L-lactate standard curve concomitantly ran with test samples to determine lactate concentration in each sample. Lactate concentrations were normalized to total protein using a Pierce Bicinchoninic Acid Protein Assay Kit.
# 4T1 tumor = test: Tumor efficacy study in a 4T1 syngraft; conditions: 5 mg/kg daily for 11 days
smiles,measurement,setting,value
"CN(Cc1ccc(C(F)(F)F)cc1)c1ccc2cc(C(=O)O)c(=O)oc2c1.NC(CO)(CO)CO [C5, 1,3-dihydroxy-2-(hydroxymethyl)propan-2-aminium 7-(methyl(4-(trifluoromethyl)benzyl)amino)-2-oxo-2H-chromene-3-carboxylate]",reversal of Pyr-driven respiration effects by methyl pyruvate,[1],able to reverse
same,compensatory glycolysis (extracellular acidification rates),4T1 cells [2],dose-dependent decrease
same,mitochondrial respiration (OCR),"4T1 cells [2]; media with glucose, Pyr, glutamine",inhibited mitochondrial respiration in a dose-dependent fashion
same,EC50,MDA-MB-231,> 1000 µM
same,EC50,67NR,48 ± 4.3 µM
same,EC50,4T1,67.9 ± 7.3 µM
same,increase in Clint compared with C3,[3]; human liver microsomes,two-fold
same,half-life,"[3]; human, liver microsomes, exceeding the experimental endpoints",> 2 h
same,clinical observations after single oral dose,"oral 10, 25, and 40 mg/kg, 7 days",no signs of clinical toxicity
same,"gross pathology, including general cardiotoxicity, after organ resection","oral, end of study",no gross pathology
same,intracellular lactate accumulation,4T1 cells [4],potent accumulation of lactate
same,mouse body weight,4T1 tumor,remained constant
same,reduction in tumor mass compared with vehicle,4T1 tumor; BALB/c,~41%
same,reduction in tumor volume compared with vehicle,4T1 tumor; BALB/c,~20%
